Measurements as given in patent publication US9700539B2, “Therapeutic application of (Boc)2-creatine” (UNIVERSITA' DEGLI STUDI DI GENOVA, priority 2013, dated 2017).

Legend:
[1] = tested on: tumor cell lines that express a high level of creatine kinase; conditions: literature; cited from earlier work
creatine kinase enzyme [2] = conditions: literature; cited from earlier work
creatine kinase enzyme [3] = experiment: Creatine kinase activity by the coupled enzymatic method (pyruvate kinase/lactate dehydrogenase, NADH at 340 nm); format: biochemical; conditions: 2 mM creatine
Method: The activity of the creatine kinase enzyme was measured by the enzymatic coupling method (Bergmeyer 1974). In this method, the ATP hydrolysis is coupled with the NADH oxidation, which is monitored, by means of a spectrophotometer, by the decrease in absorbance at 340 nm (ε340=6.22 mM^−1 cm^−1).
The dosage of the creatine kinase was carried out with the spectrophotometer at 340 nm, following the oxidation of the pyridine coenzyme NADH, which is expressed as a decrease in the absorbance. To be able to carry out the dosage, the reaction of the creatine kinase was combined with two other enzymatic reactions catalyzed respectively by the pyruvate kinase and by the lactate dehydrogenase (Bergmeyer 1974). This method, defined as the coupled method, is necessary because both the substrata and the products of the creatine kinase are not directly visible to the spectrophotometer. In particular, the dosage solution contained the following compounds: 100 mM Tris HCl, pH 7.5, 2 mM MgCl2, 75 mM KCl, 2 mM ATP, 0.5 mM phosphoenolpyruvate, 0.16 mM NADH, 10 IU of pyruvate kinase and of lactate dehydrogenase, in a final volume of 1 ml. The reaction begins by the addition of 2 mM of creatine. The dosage is carried out continuously, i.e. the enzyme activity is followed in real time during the development of the reaction. The dosage trend is monitored by a register connected to the spectrophotometer. The reactions take place in the cuvette, as illustrated in FIG. 1.
To verify the inhibiting effect of (Boc)2-creatine, concentrations between 0.25 and 2 mM were added to the dosage solution, before the addition of the creatine.
To identify the type of inhibition, the maximum kinetic speed (Vmax) and the Michaelis Menten constant (Km) were measured. To be able to carry out the experiment, for each concentration of (Boc)2-creatine, the dosage was carried out in the presence of different substratum concentrations (creatine). The data were analyzed with the Lineweaver-Burk double-reciprocal plot.

[4] = tested on: slices of mouse hippocampus; experiment: Incubation of mouse hippocampus slices with (Boc)2-creatine; format: cell-based; conditions: 2 mM, 3 hours at 36° C.
Text: Of course, high concentrations of (Boc)2-creatine will have a cytotoxic effect. […] Since tumor development is due to an uncontrolled cellular progression, a molecule which can control the main source of cell energy gives a valid means of controlling cell proliferation.

## N=C1NCCN1CC(=O)O [cyclocreatine, 1-carboxymethyl-2-iminoimidazolidine]
[1]
  inhibition of tumor cell lines: suitable for inhibiting tumor cell lines that express a high level of creatine kinase

## NC(=O)CI [Iodoacetamide]
Creatine kinase enzyme [2]
  type of inhibition of creatine kinase: complete and irreversible inhibition

## CN(CC(=O)O)C(=NC(=O)OC(C)(C)C)NC(=O)OC(C)(C)C [(Boc)2-creatine]
Creatine kinase enzyme [3]; 0.25 mM (Boc)2-creatine
  inhibition of the creatine kinase: 21%
Creatine kinase enzyme [3]; 0.5 mM (Boc)2-creatine
  inhibition of the creatine kinase: 39%
Creatine kinase enzyme [3]; 0.75 mM (Boc)2-creatine
  inhibition of the creatine kinase: 75%
Creatine kinase enzyme [3]; 1 mM (Boc)2-creatine
  maximum inhibition of the creatine kinase: 95%
[4]
  cytotoxic effect on hippocampus slices (vital signs): show no vital signs

## CCCCCC(CCCC)=C([Te]c1ccccc1)C(=O)c1ccccc1 [3-butyl-1-phenyl-2-(phenyltelluro)oct-en-1-one]
Creatine kinase enzyme [2]
  type of inhibition of creatine kinase: competitive inhibitor
